Reference: PMC11631053, “A receptor-based assay to study the sweet and bitter tastes of sweeteners and binary sweet blends: the SWEET project” (Chemical Senses, 2024)

Key:
TAS2R4 = molecular target: T1, TAS2R4 (Homo sapiens, UniProt Q9NYW5); assay: Calcium mobilization assay, HEK293T-Gα16gust44 cells expressing TAS2R4; conditions: maximal concentration tested: sucralose 100 mM, neotame 30 µM, Ace-K 300 mM, RebA 4 mM, RebM 4 mM, mogroside V 5 mM, erythritol 200 mM, D-allulose 500 mM, thaumatin 100 mM
T1 sequence (Q9NYW5 1-299): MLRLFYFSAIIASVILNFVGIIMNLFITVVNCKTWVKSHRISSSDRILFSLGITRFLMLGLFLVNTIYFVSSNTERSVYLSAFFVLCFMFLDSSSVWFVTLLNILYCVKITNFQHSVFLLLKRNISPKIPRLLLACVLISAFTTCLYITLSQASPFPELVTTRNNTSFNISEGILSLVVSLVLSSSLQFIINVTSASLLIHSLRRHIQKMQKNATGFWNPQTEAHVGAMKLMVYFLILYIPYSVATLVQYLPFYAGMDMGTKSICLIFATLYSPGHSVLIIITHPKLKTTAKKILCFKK
Method: (§1) Different concentration ranges were tested depending on the injected sweet compound. […] All of the concentration-receptor combinations were measured in triplicate, and each experiment was repeated at least 3 times. The Ca^2+ change was expressed as a fractional change in fluorescent light intensity: ΔF/F = (F − F0)/F0, where F was the fluorescent light intensity at each point, and F0 was the value of fluorescent light emitted prior to stimulus application. To calculate dose–response relationships, the changes in fluorescence upon stimulus application were averaged, mock-subtracted and baseline-corrected. The resulting obtained dose–response data were adjusted by using a 4-parameter logistic equation. The half-maximal effective concentration (EC50) was calculated by using SigmaPlot software (Systat Software, San Jose, CA, USA) as described in supplemental Supplementary Figs. S1, S2, and S3.

TAS2R1 = molecular target: T2, TAS2R1 (Homo sapiens, UniProt Q9NYW7); assay: Calcium mobilization assay, HEK293T-Gα16gust44 cells expressing TAS2R1; conditions: for Response of TAS2R1: maximal concentration tested: sucralose 100 mM, neotame 30 µM, Ace-K 300 mM, RebA 4 mM, RebM 4 mM, mogroside V 5 mM, erythritol 200 mM, D-allulose 500 mM, thaumatin 100 mM
T2 sequence (Q9NYW7 1-299): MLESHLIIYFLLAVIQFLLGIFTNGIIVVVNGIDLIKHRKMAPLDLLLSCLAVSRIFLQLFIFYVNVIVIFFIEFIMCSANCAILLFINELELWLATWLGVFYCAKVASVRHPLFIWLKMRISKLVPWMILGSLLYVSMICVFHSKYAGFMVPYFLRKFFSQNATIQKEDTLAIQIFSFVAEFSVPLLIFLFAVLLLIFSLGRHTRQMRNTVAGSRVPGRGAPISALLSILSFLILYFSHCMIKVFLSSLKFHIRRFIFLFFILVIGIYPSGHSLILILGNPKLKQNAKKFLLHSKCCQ
Method: (§2) Different concentration ranges were tested depending on the injected sweet compound. […] All of the concentration-receptor combinations were measured in triplicate, and each experiment was repeated at least 3 times. The Ca^2+ change was expressed as a fractional change in fluorescent light intensity: ΔF/F = (F − F0)/F0, where F was the fluorescent light intensity at each point, and F0 was the value of fluorescent light emitted prior to stimulus application. To calculate dose–response relationships, the changes in fluorescence upon stimulus application were averaged, mock-subtracted and baseline-corrected. The resulting obtained dose–response data were adjusted by using a 4-parameter logistic equation.

TAS2R43 = molecular target: T3, TAS2R43 (Homo sapiens, UniProt P59537); assay: Calcium mobilization assay, HEK293T-Gα16gust44 cells expressing TAS2R43; conditions: for Response of TAS2R43: maximal concentration tested: sucralose 100 mM, neotame 30 µM, Ace-K 300 mM, RebA 4 mM, RebM 4 mM, mogroside V 5 mM, erythritol 200 mM, D-allulose 500 mM, thaumatin 100 mM
T3 sequence (P59537 1-309): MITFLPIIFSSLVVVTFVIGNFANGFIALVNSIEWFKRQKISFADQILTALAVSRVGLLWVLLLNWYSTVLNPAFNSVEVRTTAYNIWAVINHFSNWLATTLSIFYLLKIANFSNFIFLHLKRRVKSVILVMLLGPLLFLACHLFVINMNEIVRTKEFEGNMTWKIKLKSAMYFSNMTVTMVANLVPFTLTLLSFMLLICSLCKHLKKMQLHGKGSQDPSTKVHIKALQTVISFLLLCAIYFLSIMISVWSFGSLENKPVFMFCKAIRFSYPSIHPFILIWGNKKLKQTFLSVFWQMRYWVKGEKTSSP
Method: as §2

25 human TAS2Rs = assay: Screen of the 25 human TAS2Rs, calcium mobilization in HEK293T-Gα16gust44 cells; format: cell-based; conditions: for number of TAS2Rs activated: of the 25 human TAS2Rs; for activation of any TAS2Rs: at the maximal tested concentration (Table 4)
Method: The activation of the 25 human TAS2Rs by the 9 selected sweeteners (excluding sucrose) was examined by using HEK293T-Gα16gust44 cells. Cellular responses were measured after cell stimulation with various concentrations of the sweeteners.

TAS2R7 = molecular target: T4, TAS2R7 (Homo sapiens, UniProt Q9NYW3); assay: Calcium mobilization assay, HEK293T-Gα16gust44 cells expressing TAS2R7; conditions: maximal concentration tested: sucralose 100 mM, neotame 30 µM, Ace-K 300 mM, RebA 4 mM, RebM 4 mM, mogroside V 5 mM, erythritol 200 mM, D-allulose 500 mM, thaumatin 100 mM
T4 sequence (Q9NYW3 1-318): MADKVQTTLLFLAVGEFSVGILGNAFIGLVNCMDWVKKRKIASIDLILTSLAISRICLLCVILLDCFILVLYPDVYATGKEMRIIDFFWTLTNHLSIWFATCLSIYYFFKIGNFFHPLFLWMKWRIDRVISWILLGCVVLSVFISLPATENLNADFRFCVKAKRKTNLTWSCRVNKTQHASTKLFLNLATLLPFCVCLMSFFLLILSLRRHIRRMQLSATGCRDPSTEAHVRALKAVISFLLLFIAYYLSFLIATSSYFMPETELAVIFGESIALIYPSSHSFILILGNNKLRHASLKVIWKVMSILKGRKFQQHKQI
Method: as §1

TAS2R5 = molecular target: T5, TAS2R5 (Homo sapiens, UniProt Q9NYW4); assay: Calcium mobilization assay, HEK293T-Gα16gust44 cells expressing TAS2R5; conditions: maximal concentration tested: sucralose 100 mM, neotame 30 µM, Ace-K 300 mM, RebA 4 mM, RebM 4 mM, mogroside V 5 mM, erythritol 200 mM, D-allulose 500 mM, thaumatin 100 mM
T5 sequence (Q9NYW4 1-299): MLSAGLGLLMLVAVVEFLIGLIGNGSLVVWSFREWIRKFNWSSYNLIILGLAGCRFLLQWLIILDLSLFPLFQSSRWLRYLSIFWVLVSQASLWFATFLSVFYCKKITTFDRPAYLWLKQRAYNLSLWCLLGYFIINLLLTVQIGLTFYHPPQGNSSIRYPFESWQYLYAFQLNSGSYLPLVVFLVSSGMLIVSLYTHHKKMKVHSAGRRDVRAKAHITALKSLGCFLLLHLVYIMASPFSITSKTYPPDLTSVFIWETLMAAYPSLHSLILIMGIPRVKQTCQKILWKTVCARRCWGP
Method: as §1

TAS2R8 = molecular target: T6, TAS2R8 (Homo sapiens, UniProt Q9NYW2); assay: Calcium mobilization assay, HEK293T-Gα16gust44 cells expressing TAS2R8; conditions: maximal concentration tested: sucralose 100 mM, neotame 30 µM, Ace-K 300 mM, RebA 4 mM, RebM 4 mM, mogroside V 5 mM, erythritol 200 mM, D-allulose 500 mM, thaumatin 100 mM
T6 sequence (Q9NYW2 1-309): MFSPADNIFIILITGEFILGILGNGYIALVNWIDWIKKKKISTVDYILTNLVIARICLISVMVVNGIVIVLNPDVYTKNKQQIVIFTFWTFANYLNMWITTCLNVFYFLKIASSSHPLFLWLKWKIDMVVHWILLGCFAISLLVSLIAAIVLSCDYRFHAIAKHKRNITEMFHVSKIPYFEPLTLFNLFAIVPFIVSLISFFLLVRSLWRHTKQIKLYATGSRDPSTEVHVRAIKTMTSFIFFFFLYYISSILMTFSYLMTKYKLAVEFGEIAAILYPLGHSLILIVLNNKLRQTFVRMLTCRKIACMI
Method: as §1

TAS2R45 = molecular target: T7, TAS2R45 (Homo sapiens, UniProt P59539); assay: Calcium mobilization assay, HEK293T-Gα16gust44 cells expressing TAS2R45; conditions: maximal concentration tested: sucralose 100 mM, neotame 30 µM, Ace-K 300 mM, RebA 4 mM, RebM 4 mM, mogroside V 5 mM, erythritol 200 mM, D-allulose 500 mM, thaumatin 100 mM
T7 sequence (P59539 1-299): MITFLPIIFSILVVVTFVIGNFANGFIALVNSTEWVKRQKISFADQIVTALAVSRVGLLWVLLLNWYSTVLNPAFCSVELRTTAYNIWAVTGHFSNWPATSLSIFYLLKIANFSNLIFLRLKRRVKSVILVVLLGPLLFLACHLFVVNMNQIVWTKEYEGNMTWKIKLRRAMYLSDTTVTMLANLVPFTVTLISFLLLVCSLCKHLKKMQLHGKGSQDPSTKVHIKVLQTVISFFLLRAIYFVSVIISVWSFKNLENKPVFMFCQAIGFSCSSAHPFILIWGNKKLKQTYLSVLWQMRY
Method: as §1

## C[C@H](CC[C@@H](O[C@@H]1O[C@H](CO[C@@H]2O[C@H](CO)[C@@H](O)[C@H](O)[C@H]2O)[C@@H](O)[C@H](O)[C@H]1O[C@@H]1O[C@H](CO)[C@@H](O)[C@H](O)[C@H]1O)C(C)(C)O)[C@H]1CC[C@@]2(C)[C@@H]3CC=C4[C@@H](CC[C@H](O[C@@H]5O[C@H](CO[C@@H]6O[C@H](CO)[C@@H](O)[C@H](O)[C@H]6O)[C@@H](O)[C@H](O)[C@H]5O)C4(C)C)[C@]3(C)[C@H](O)C[C@]12C [Mogroside V, mogroside V]
TAS2R4
  Response of TAS2R4: −
TAS2R1
  Response of TAS2R1: −
TAS2R43
  Response of TAS2R43: −
25 human TAS2Rs
  number of TAS2Rs activated: 2
TAS2R7
  Response of TAS2R7: −
TAS2R5
  Response of TAS2R5: −
TAS2R8
  Response of TAS2R8: −
TAS2R45
  Response of TAS2R45: −

## thaumatin
TAS2R4
  Response of TAS2R4: −
TAS2R1
  Response of TAS2R1: −
TAS2R43
  Response of TAS2R43: −
25 human TAS2Rs
  activation of any TAS2Rs: Neither neotame, RebM, erythritol, or thaumatin activated any TAS2Rs
TAS2R7
  Response of TAS2R7: −
TAS2R5
  Response of TAS2R5: −
TAS2R8
  Response of TAS2R8: −
TAS2R45
  Response of TAS2R45: −

## O=C(CO)[C@H](O)[C@H](O)[C@H](O)CO [D-allulose]
TAS2R4
  Response of TAS2R4: −
TAS2R1
  Response of TAS2R1: −
TAS2R43
  concentrations at which TAS2R43 was activated: > 300 mM
  Response of TAS2R43: +
25 human TAS2Rs
  number of TAS2Rs activated: 7
TAS2R7
  Response of TAS2R7: −
TAS2R5
  Response of TAS2R5: −
TAS2R8
  Response of TAS2R8: −
TAS2R45
  Response of TAS2R45: −

## CC1=CC(=O)NS(=O)(=O)O1 [Ace-K, acesulfame-K]
TAS2R4
  Response of TAS2R4: −
TAS2R1
  Response of TAS2R1: −
TAS2R43
  Response of TAS2R43: §^b
TAS2R7
  Response of TAS2R7: −
TAS2R5
  Response of TAS2R5: −
TAS2R8
  Response of TAS2R8: −
TAS2R45
  Response of TAS2R45: −

## OC[C@@H](O)[C@@H](O)CO [Erythritol, erythritol]
TAS2R4
  Response of TAS2R4: −
TAS2R1
  Response of TAS2R1: −
TAS2R43
  Response of TAS2R43: −
25 human TAS2Rs
  activation of any TAS2Rs: Neither neotame, RebM, erythritol, or thaumatin activated any TAS2Rs
TAS2R7
  Response of TAS2R7: −
TAS2R5
  Response of TAS2R5: −
TAS2R8
  Response of TAS2R8: −
TAS2R45
  Response of TAS2R45: −

## OC[C@H]1O[C@H](O[C@]2(CCl)O[C@H](CCl)[C@@H](O)[C@@H]2O)[C@H](O)[C@@H](O)[C@H]1Cl [Sucralose, sucralose]
TAS2R4
  Response of TAS2R4: −
TAS2R1; TAS2R1 EC50
  EC50: > 100 mM
TAS2R1
  Response of TAS2R1: #^a
TAS2R43
  Response of TAS2R43: −
25 human TAS2Rs
  number of TAS2Rs activated: 3
TAS2R7
  Response of TAS2R7: −
TAS2R5
  Response of TAS2R5: −
TAS2R8
  Response of TAS2R8: −
TAS2R45
  Response of TAS2R45: −

## COC(=O)[C@H](Cc1ccccc1)NC(=O)[C@H](CC(=O)O)NCCC(C)(C)C [Neotame]
TAS2R4
  Response of TAS2R4: −
TAS2R1
  Response of TAS2R1: −
TAS2R43
  Response of TAS2R43: −
25 human TAS2Rs
  activation of any TAS2Rs: Neither neotame, RebM, erythritol, or thaumatin activated any TAS2Rs
TAS2R7
  Response of TAS2R7: −
TAS2R5
  Response of TAS2R5: −
TAS2R8
  Response of TAS2R8: −
TAS2R45
  Response of TAS2R45: −

## C=C1C[C@@]23CC[C@H]4[C@@](C)(CCC[C@@]4(C)C(=O)O[C@@H]4O[C@H](CO)[C@@H](O)[C@H](O[C@@H]5O[C@H](CO)[C@@H](O)[C@H](O)[C@H]5O)[C@H]4O[C@@H]4O[C@H](CO)[C@@H](O)[C@H](O)[C@H]4O)[C@@H]2CC[C@]1(O[C@@H]1O[C@H](CO)[C@@H](O)[C@H](O[C@@H]2O[C@H](CO)[C@@H](O)[C@H](O)[C@H]2O)[C@H]1O[C@@H]1O[C@H](CO)[C@@H](O)[C@H](O)[C@H]1O)C3 [RebM, Rebaudioside M]
TAS2R4
  Response of TAS2R4: −
TAS2R1
  Response of TAS2R1: −
TAS2R43
  Response of TAS2R43: −
25 human TAS2Rs
  activation of any TAS2Rs: Neither neotame, RebM, erythritol, or thaumatin activated any TAS2Rs
TAS2R7
  Response of TAS2R7: −
TAS2R5
  Response of TAS2R5: −
TAS2R8
  Response of TAS2R8: −
TAS2R45
  Response of TAS2R45: −
